PubChem BioAssay AID248 (DTP/NCI, 2004)
Several values for one entry are separate records, joined by “and”; a condition that tells them apart may be missing. Equal entries are not always repeated. Toxic doses and inconclusive results are not listed. Cut-off read from the data, not from the text of the source: active = T/C of 150% or more; inactive = T/C below 125%.

Test system: L1210 leukemia ip in BDF1 mice, survival T/C
Experiment: NCI In Vivo Anticancer Drug Screen. Data for tumor model L1210 Leukemia (intraperitoneal) in B6D2F1 (BDF1) mice
Details: endpoint: mean survival time, higher = longer survival
Procedure, shortened: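 Mice bearing the transplanted tumor received compound or vehicle. Survival of the treated group was divided by that of the vehicle-treated control group to give the ratio.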

[1] = dose: 100.0 mg/kg/injection, schedule: Q01DX001 (ip), vehicle: saline
[2] = dose: 200.0 mg/kg/injection, schedule: Q01DX001 (ip), vehicle: saline
[3] = dose: 400.0 mg/kg/injection, schedule: Q01DX001 (ip), vehicle: saline
[4] = dose: 100.0 mg/kg/injection, schedule: Q01DX009 (ip), vehicle: Klucel (hydroxypropylcellulose) (HPC)
[5] = dose: 100.0 mg/kg/injection, schedule: Q04DX002 (ip), vehicle: Klucel (hydroxypropylcellulose) (HPC)
[6] = dose: 200.0 mg/kg/injection, schedule: Q01DX009 (ip), vehicle: Klucel (hydroxypropylcellulose) (HPC)
[7] = dose: 400.0 mg/kg/injection, schedule: Q01DX009 (ip), vehicle: Klucel (hydroxypropylcellulose) (HPC)

Measured: T/C

COC(=O)CC(C)C(C)(C)[N+](=O)[O-] (stereo not given)
inactive: dose: 50.0 mg/kg/injection, schedule: Q01DX009 (ip), vehicle: saline with Tween-80 92 % of control | dose: 100.0 mg/kg/injection, schedule: Q01DX009 (ip), vehicle: saline with Tween-80 92 % of control | dose: 200.0 mg/kg/injection, schedule: Q01DX009 (ip), vehicle: saline with Tween-80 92 % of control

O=c1[nH]nc(CC(Br)c2ccccc2)o1 (stereo not given)
inactive: [1] 91 % of control | dose: 100.0 mg/kg/injection, schedule: Q04DX003 (ip), vehicle: saline 103 % of control | [2] 90 % of control | dose: 200.0 mg/kg/injection, schedule: Q04DX003 (ip), vehicle: saline 93 % of control | [3] 99 % of control | dose: 400.0 mg/kg/injection, schedule: Q04DX003 (ip), vehicle: saline 105 % of control

O=C1N(c2ccccc2)C(c2ccncc2)C1(c1ccccc1)c1ccccc1 (stereo not given)
inactive: dose: 87.5 mg/kg/injection, schedule: Q04DX003 (ip), vehicle: gum acacia 91 % of control | dose: 175.0 mg/kg/injection, schedule: Q04DX003 (ip), vehicle: gum acacia 91 % of control | dose: 350.0 mg/kg/injection, schedule: Q04DX003 (ip), vehicle: gum acacia 91 % of control

CC1CCCCN1 (stereo not given)
inactive: dose: 100.0 mg/kg/injection, schedule: Q04DX002 (ip), vehicle: saline 105 % of control | dose: 200.0 mg/kg/injection, schedule: Q04DX002 (ip), vehicle: saline 94 % of control | dose: 400.0 mg/kg/injection, schedule: Q04DX002 (ip), vehicle: saline 112 % of control

NC(=O)C(CCO)n1ccc(N)nc1=O (stereo not given)
inactive: [1] 94 % of control | [2] 98 % of control | [3] 102 % of control

c1ccc2c(c1)ccc1cc3c4ccccc4c4ccccc4c3cc12
inactive: dose: 50.0 mg/kg/injection, schedule: Q01DX001 (ip), vehicle: carboxymethylcellulose (CMC) 97 % of control | dose: 200.0 mg/kg/injection, schedule: Q01DX001 (ip), vehicle: carboxymethylcellulose (CMC) 90 % of control | dose: 400.0 mg/kg/injection, schedule: Q01DX001 (ip), vehicle: carboxymethylcellulose (CMC) 106 % of control

OCC1OCOC2C(CO)OCOC12 (stereo not given)
inactive: dose: 25.6 mg/kg/injection, schedule: Q04DX002 (ip), vehicle: saline with Tween-80 104 % of control | dose: 64.0 mg/kg/injection, schedule: Q04DX002 (ip), vehicle: saline with Tween-80 101 % of control | dose: 160.0 mg/kg/injection, schedule: Q04DX002 (ip), vehicle: saline with Tween-80 101 % of control | dose: 400.0 mg/kg/injection, schedule: Q04DX002 (ip), vehicle: saline with Tween-80 96 % of control

CSc1ccc(NC(=O)C(Cl)Cl)cc1
inactive: [4] 95 % of control | [5] 97 % of control | [6] 105 % of control | [7] 101 % of control | dose: 400.0 mg/kg/injection, schedule: Q04DX002 (ip), vehicle: Klucel (hydroxypropylcellulose) (HPC) 93 % of control

O=c1[nH]c(SCc2cccc([N+](=O)[O-])c2)nc2nc[nH]c12
inactive: dose: 50.0 mg/kg/injection, schedule: Q01DX001 (ip), vehicle: Klucel (hydroxypropylcellulose) (HPC) 96 % of control | dose: 100.0 mg/kg/injection, schedule: Q01DX001 (ip), vehicle: Klucel (hydroxypropylcellulose) (HPC) 100 % of control | dose: 200.0 mg/kg/injection, schedule: Q01DX001 (ip), vehicle: Klucel (hydroxypropylcellulose) (HPC) 107 % of control

Cn1cnc([N+](=O)[O-])c1[Se]c1ncnc2c1c(C#N)cn2C1OC(CO)C(O)C1O (stereo not given)
inactive: dose: 6.25 mg/kg/injection, schedule: Q01DX009 (ip), vehicle: saline 111 % of control | dose: 12.5 mg/kg/injection, schedule: Q01DX005 (ip), vehicle: saline 95 % of control | dose: 12.5 mg/kg/injection, schedule: Q01DX009 (ip), vehicle: saline 113 % of control | dose: 15.0 mg/kg/injection, schedule: Q01DX009 (ip), vehicle: saline 103 % of control | dose: 25.0 mg/kg/injection, schedule: Q01DX005 (ip), vehicle: saline 111 % of control | dose: 25.0 mg/kg/injection, schedule: Q01DX009 (ip), vehicle: saline 108 % of control and 117 % of control | dose: 42.0 mg/kg/injection, schedule: Q01DX009 (ip), vehicle: saline 110 % of control

O=C(Nc1ccc(Cl)cc1Cl)P(=O)(O)c1ccccc1
inactive: [4] 92 % of control | [5] 101 % of control | [6] 103 % of control | dose: 200.0 mg/kg/injection, schedule: Q04DX002 (ip), vehicle: Klucel (hydroxypropylcellulose) (HPC) 90 % of control | [7] 92 % of control
